Experiments:
PDGF-R = PDGF-R (Homo sapiens, UniProt P09619); assay: PDGF-R ELISA; format: cell-based
From the text: A PDGF-R ELISA is described in International Patent Publication No. WO 96/40116, published December 19, 1996 by Tang et al.

EGFR = target: T1, EGFR (Homo sapiens, UniProt P00533); assay: EGFR ELISA assay (in vitro kinase activity, EGFR captured from A431 cell lysate); format: biochemical; parameters: concentration or dose not given beside the values
T1 construct: Add 7 ug A431 cell lysate per well (EGFR source); endogenous in cells; host or cells: A431
Summary of the method: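 EGFR from A431 lysate was captured on plates coated with anti-EGFR antibody. Compounds were added 30 min before a 5 min phosphorylation with 3 µM ATP/5 mM MnCl2, which was stopped with 20 mM EDTA. Phosphotyrosine was detected with rabbit anti-phosphotyrosine, then a peroxidase-conjugated secondary and ABTS/H2O2, read at 410 nm.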

PDGF-R, sequence (P09619 33-1106, species assumed): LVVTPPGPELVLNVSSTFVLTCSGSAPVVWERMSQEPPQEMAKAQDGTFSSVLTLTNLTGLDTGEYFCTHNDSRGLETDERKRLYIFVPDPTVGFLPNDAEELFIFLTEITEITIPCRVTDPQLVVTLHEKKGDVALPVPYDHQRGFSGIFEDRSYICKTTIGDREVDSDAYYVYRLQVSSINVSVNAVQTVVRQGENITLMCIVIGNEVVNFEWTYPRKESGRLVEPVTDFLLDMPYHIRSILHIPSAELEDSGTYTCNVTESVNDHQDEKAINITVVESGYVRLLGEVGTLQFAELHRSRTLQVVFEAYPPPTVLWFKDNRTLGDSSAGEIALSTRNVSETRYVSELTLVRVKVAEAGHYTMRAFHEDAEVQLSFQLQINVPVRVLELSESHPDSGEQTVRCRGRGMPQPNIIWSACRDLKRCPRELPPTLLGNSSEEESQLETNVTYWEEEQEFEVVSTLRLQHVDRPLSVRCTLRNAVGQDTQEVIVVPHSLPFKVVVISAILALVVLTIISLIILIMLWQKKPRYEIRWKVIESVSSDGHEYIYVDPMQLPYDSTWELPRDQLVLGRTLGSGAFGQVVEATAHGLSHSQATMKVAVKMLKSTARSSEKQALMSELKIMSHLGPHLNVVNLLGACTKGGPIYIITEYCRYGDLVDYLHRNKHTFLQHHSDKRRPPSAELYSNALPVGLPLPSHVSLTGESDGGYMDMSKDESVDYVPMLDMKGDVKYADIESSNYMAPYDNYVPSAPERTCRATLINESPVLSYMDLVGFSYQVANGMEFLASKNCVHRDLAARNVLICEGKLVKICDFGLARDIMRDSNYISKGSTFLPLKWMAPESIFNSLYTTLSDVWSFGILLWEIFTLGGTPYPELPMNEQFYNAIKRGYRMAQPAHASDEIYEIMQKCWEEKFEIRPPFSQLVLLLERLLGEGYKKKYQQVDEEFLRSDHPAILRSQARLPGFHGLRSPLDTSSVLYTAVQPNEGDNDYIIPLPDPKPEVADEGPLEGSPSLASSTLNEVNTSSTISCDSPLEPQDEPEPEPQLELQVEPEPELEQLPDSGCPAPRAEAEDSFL
T1 sequence (P00533 25-1210): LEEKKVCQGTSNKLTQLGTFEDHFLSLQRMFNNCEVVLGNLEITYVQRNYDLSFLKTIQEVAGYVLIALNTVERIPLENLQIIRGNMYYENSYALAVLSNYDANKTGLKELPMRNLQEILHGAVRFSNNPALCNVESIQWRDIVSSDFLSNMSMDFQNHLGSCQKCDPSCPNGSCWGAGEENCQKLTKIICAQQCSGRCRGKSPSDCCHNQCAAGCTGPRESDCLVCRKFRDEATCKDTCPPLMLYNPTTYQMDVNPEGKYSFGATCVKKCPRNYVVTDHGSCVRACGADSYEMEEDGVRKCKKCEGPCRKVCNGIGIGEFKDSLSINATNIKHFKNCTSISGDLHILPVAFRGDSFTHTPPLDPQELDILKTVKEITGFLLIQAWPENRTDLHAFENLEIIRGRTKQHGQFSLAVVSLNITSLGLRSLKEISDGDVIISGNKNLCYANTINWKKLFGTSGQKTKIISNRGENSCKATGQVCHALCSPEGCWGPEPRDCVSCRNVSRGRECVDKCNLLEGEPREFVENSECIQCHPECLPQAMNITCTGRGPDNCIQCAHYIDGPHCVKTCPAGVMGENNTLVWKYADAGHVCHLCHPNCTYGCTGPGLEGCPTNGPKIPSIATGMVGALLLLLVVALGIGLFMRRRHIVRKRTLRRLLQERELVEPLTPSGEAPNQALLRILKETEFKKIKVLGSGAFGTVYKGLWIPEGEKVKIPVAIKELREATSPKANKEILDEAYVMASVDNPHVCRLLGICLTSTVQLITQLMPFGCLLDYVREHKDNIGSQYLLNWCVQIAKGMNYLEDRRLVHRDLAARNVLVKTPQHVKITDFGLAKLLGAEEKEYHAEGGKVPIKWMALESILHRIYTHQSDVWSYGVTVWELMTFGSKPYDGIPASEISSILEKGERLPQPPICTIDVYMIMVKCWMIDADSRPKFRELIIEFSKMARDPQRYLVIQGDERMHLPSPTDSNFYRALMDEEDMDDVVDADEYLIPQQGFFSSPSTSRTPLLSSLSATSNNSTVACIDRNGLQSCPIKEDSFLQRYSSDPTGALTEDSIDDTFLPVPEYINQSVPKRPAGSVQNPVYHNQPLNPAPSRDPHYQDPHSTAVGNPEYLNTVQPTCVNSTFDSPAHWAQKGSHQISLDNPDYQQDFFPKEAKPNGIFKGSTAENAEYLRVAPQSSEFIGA

Structure (SMILES)	PDGF Kinase %Inhibition (PDGF-R)	Biochem EGFR %Inhibition (EGFR)
O=C1Nc2ccc(S(=O)(=O)Nc3ccc(C(F)(F)F)cc3)cc2C1=Cc1ccc(O)c([N+](=O)[O-])c1 [10724/E03]	14.7%	33.1%
Cc1c(Br)ccc2c1C(=Cc1cc(C(C)C)c(O)c(C(C)C)c1)C(=O)N2 [10724/C06]	34.9%	-2.4%
O=C1Nc2ccc(S(=O)(=O)Nc3ccc(C(F)(F)F)cc3)cc2C1=Cc1cccn1-c1ccc(Cl)cc1 [10724/E09]	21.0%	6.3%
CNS(=O)(=O)c1ccc2c(c1)C(=Cc1cc3c4c(c1O)CCCN4CCC3)C(=O)N2 [10724/D05]	35.6%	-8.4%
CNS(=O)(=O)c1ccc2c(c1)C(=Cc1ccc(O)c([N+](=O)[O-])c1)C(=O)N2 [10724/D03]	-15.2%	2.5%
CC(C)c1cc(C=C2C(=O)Nc3c(Br)cc(Br)cc32)cc(C(C)C)c1O [10724/A06]	30.7%	1.4%
CC(C)c1cc(C=C2C(=O)Nc3ccc(CCCl)cc32)cc(C(C)C)c1O [10724/G06]	-6.9%	3.2%
CCc1ccc(C=C2C(=O)Nc3ccc(S(=O)(=O)NC)cc32)o1 [10724/D10]	38.3%	12.7%
Cc1csc2sc(C=C3C(=O)Nc4ccc(I)cc43)c(C)c12 [10724/B11]	23.0%	-23.2%
Cc1c(Br)ccc2c1C(=Cc1ccc([N+](=O)[O-])c(O)c1)C(=O)N2 [10724/C04]	24.4%	13.2%
O=C1Nc2ccc(I)cc2C1=Cc1ccc(O)c([N+](=O)[O-])c1 [10724/B03]	14.7%	14.9%
O=C1Nc2ccc(S(=O)(=O)Nc3ccc(C(F)(F)F)cc3)cc2C1=Cc1cc2c3c(c1O)CCCN3CCC2 [10724/E05]	-7.6%	0.5%
COc1cc(C)cc(O)c1C=C1C(=O)Nc2ccc(I)cc21 [10725/B06]	31.3%	-13.7%
O=C1Nc2ccc(S(=O)(=O)Nc3ccc(C(F)(F)F)cc3)cc2C1=Cc1ccc([N+](=O)[O-])c(O)c1 [10724/E04]	-32.6%	8.9%
O=C1Nc2c(Br)cc(Br)cc2C1=Cc1sccc1Br [10725/A02]	-14.2%	3.9%
O=C1Nc2c(Br)cc(Br)cc2C1=Cc1ccc(O)c([N+](=O)[O-])c1 [10724/A03]	0.1%	17.2%
Cc1c(Br)ccc2c1C(=Cc1ccc(O)c([N+](=O)[O-])c1)C(=O)N2 [10724/C03]	4.3%	16.5%
CNS(=O)(=O)c1ccc2c(c1)C(=Cc1ccc([N+](=O)[O-])c(O)c1)C(=O)N2 [10724/D04]	-1.3%	5.4%
O=C1Nc2ccc(I)cc2C1=Cc1c(Br)cnn1-c1ccc(Cl)cc1 [10725/B10]	26.0%	53.3%
CCc1ccc(C=C2C(=O)Nc3ccc(Br)c(C)c32)o1 [10724/C10]	27.2%	13.8%

Structure (SMILES)	PDGF Kinase %Inhibition (PDGF-R)	Biochem EGFR %Inhibition (EGFR)
O=C1Nc2ccc(I)cc2C1=Cc1c[nH]cn1 [10725/B11]	66.3%	43.0%
O=CN1CCN(c2ccc(C=C3C(=O)Nc4ccc(I)cc43)cc2)CC1 [10725/B07]	100.8%	45.8%
COc1ccc(Br)c(C=C2C(=O)Nc3ccc(I)cc32)c1O [10725/B03]	7.8%	-15.3%
O=C1Nc2ccc(CCCl)cc2C1=Cc1cc2ccccc2o1 [10724/G07]	-41.6%	-11.7%
CC(C)c1cc(C=C2C(=O)Nc3ccc(I)cc32)cc(C(C)C)c1O [10724/B06]	43.2%	30.9%
Cc1c(Br)cc(Br)c2c1C(=Cc1c(Br)cnn1-c1ccc(Cl)cc1)C(=O)N2 [10725/A10]	33.7%	14.0%
O=C1Nc2ccc(I)cc2C1=Cc1sccc1Br [10725/B02]	-7.5%	2.5%
Cc1cc(C=C2C(=O)Nc3ccc(I)cc32)[nH]n1 [10725/B05]	44.7%	20.4%
O=C1Nc2ccc(I)cc2C1=Cc1cccn1-c1ccc(Cl)cc1 [10724/B09]	25.8%	8.7%
Cc1c(Br)ccc2c1C(=Cc1cc3ccccc3o1)C(=O)N2 [10724/C07]	22.3%	9.4%
CNS(=O)(=O)c1ccc2c(c1)C(=Cc1cc(C(C)C)c(O)c(C(C)C)c1)C(=O)N2 [10724/D06]	40.4%	-12.4%
O=C1Nc2c(Br)cc(Br)cc2C1=Cc1cc2ccccc2o1 [10724/A07]	16.1%	18.3%
CCc1ccc(C=C2C(=O)Nc3ccc(I)cc32)o1 [10724/B10]	9.8%	76.2%
Cc1csc2sc(C=C3C(=O)Nc4c(Br)cc(Br)cc43)c(C)c12 [10724/A11]	29.3%	-16.6%
COC(=O)Cc1c(Cl)[nH]c(C=C2C(=O)Nc3ccc(I)cc32)c1C(=O)OC [10725/B09]	43.8%	72.3%
O=C1Nc2ccc(CCCl)cc2C1=Cc1cccn1-c1ccc(Cl)cc1 [10724/G09]	-18.0%	-21.7%
Cc1csc2sc(C=C3C(=O)Nc4ccc(S(=O)(=O)Nc5ccc(C(F)(F)F)cc5)cc43)c(C)c12 [10724/E11]	5.0%	-26.8%
Cc1c(Br)ccc2c1C(=Cc1sc3scc(C)c3c1C)C(=O)N2 [10724/C11]	23.0%	0.7%
Cc1c(Br)ccc2c1C(=Cc1cccn1-c1ccc(Cl)cc1)C(=O)N2 [10724/C09]	20.3%	1.0%
O=CN1CCN(c2ccc(C=C3C(=O)Nc4c(Br)cc(Br)cc43)cc2)CC1 [10725/A07]	17.9%	18.2%
